The species named for data set [1] is Homo sapiens. Nature of the data set: Inhibition of human platelet (isolated from PRP) aggregation. It is filed as functional.
For data set [2], the target named is T1, Integrin alpha-IIb/beta-3 (Homo sapiens, UniProt P05106+P08514). The data set can be described thus: Inhibition of 125 I-fibrinogen binding to ADP-activated gel filtered human platelets.
Data set [3] deals with T1, Integrin alpha-IIb/beta-3. The data set can be described thus: Inhibition of 125 I-fibrinogen binding to glycoprotein IIb/IIIa receptor. In kind it is protein-complex assay.
The nature of data set [4]: terminal elimination half-life for the compound was evaluated after oral administration of a dose of 1 mg/kg in a group of eight conscious dogs. It is filed as ADME, organism-based, Canis lupus familiaris. Also noted: dose 1 mg/kg, route oral. As to conditions: dog, in vivo.

T1 sequence (P05106 27-788 limits assumed): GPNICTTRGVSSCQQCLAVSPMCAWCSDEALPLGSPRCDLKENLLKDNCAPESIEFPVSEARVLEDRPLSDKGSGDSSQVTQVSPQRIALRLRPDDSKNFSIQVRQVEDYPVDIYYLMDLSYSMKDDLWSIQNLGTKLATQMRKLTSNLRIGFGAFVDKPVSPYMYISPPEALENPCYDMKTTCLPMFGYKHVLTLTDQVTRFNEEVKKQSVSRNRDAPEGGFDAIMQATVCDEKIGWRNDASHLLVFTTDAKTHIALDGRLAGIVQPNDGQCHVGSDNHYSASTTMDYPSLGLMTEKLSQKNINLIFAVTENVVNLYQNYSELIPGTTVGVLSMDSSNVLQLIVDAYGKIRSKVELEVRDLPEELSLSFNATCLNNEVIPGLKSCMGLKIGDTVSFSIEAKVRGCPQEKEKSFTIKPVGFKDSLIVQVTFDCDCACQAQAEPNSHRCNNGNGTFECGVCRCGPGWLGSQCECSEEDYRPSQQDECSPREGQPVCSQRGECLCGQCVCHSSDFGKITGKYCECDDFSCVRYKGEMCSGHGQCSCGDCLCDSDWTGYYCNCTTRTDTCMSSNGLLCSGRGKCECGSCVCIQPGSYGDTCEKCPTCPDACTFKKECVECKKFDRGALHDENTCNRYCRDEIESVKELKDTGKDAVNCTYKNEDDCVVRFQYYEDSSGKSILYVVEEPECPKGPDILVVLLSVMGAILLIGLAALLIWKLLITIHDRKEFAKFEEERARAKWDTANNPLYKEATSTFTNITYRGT
T1 sequence (P08514 32-887 limits assumed): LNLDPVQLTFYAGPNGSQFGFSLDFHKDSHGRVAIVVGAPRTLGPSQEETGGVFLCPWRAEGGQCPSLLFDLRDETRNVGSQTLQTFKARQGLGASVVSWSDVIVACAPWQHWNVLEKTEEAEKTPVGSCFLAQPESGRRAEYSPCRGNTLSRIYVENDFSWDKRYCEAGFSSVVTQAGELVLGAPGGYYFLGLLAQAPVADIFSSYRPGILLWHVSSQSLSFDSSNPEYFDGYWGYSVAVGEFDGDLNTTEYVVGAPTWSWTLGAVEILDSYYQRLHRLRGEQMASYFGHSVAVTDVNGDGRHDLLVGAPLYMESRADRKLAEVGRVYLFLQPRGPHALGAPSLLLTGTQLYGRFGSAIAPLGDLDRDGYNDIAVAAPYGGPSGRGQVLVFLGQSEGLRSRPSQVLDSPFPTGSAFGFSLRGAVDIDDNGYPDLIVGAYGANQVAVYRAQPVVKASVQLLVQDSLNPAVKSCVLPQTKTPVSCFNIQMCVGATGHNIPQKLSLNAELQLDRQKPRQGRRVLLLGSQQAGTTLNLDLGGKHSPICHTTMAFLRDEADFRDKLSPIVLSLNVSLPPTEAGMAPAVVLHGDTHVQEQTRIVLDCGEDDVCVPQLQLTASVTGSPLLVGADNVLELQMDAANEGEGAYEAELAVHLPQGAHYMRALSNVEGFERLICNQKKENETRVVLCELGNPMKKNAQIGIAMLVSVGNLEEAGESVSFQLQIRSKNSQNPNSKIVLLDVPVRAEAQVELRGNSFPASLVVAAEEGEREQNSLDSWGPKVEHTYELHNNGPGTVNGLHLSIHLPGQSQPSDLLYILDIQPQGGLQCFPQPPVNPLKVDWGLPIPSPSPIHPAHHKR
T1 sequence (P08514 891-1039 limits assumed): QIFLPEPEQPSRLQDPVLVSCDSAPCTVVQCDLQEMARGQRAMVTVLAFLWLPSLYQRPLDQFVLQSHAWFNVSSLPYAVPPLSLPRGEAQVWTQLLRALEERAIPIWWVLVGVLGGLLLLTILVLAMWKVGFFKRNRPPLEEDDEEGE

As a reminder, the IC50 is the point on the concentration scale where inhibition reaches its midpoint. Low values mean higher potency, high ones lower potency. Molecule `N=C(N)c1ccc(CC2NC(=O)N(CC(=O)N[C@@H](CC(=O)O)C(=O)N[C@H](C(=O)O)c3ccccc3)C2=O)cc1` (stereo partly drawn) yielded an IC50 in data set [1] (Homo sapiens) of 200 nM. The term Ki denotes the dissociation constant of the complex between target and ligand, obtained from inhibition or displacement. Read a low Ki as higher affinity. In the case of `N=C(N)NCCC[C@@H]1NC(=O)N(CC(=O)N[C@@H](CC(=O)O)C(=O)N[C@H](C(=O)O)c2ccccc2)C1=O`, the Ki in data set [2] turned out to be 120 nM. In the case of `CC(C)[C@H](NC(=O)[C@H](CC(=O)O)NC(=O)CN1C(=O)N[C@@H](CCCN=C(N)N)C1=O)C(=O)O`, the IC50 in data set [1] (Homo sapiens) stood at 1000 nM. The same measure, in the same setting: the figure for `CC(C)C[C@H](NC(=O)[C@H](CC(=O)O)NC(=O)CN1C(=O)N[C@@H](CCCN=C(N)N)C1=O)C(=O)O` is 3000 nM; for `COC(=O)[C@@H](NC(=O)[C@H](CC(=O)O)NC(=O)CN1C(=O)NC(C)(c2ccc(C(=N)N)cc2)C1=O)c1ccccc1` (stereo partly drawn) it is 70 nM. Same read-out and setting: the figure for `N=C(N)c1ccc(/C=C2/NC(=O)N(CC(=O)N[C@@H](CC(=O)O)C(=O)N[C@H](C(=O)O)c3ccccc3)C2=O)cc1` is 150 nM. On the same count and under the same terms, for `N=C(N)NCCC[C@@H]1NC(=O)N(CC(=O)N[C@@H](CC(=O)O)C(=O)N[C@H](C(=O)O)C2CCCCC2)C1=O` the value was 1500 nM; for `N=C(N)Nc1ccc(CC2NC(=O)N(CC(=O)N[C@@H](CC(=O)O)C(=O)N[C@H](C(=O)O)c3ccccc3)C2=O)cc1` (stereo partly drawn), 5500 nM; for `CC1(c2ccc(C(=N)N)cc2)NC(=O)N(CC(=O)N[C@@H](CC(=O)O)C(=O)NC2C3CC4CC(C3)CC2C4)C1=O` (stereo partly drawn), 25 nM.

For the molecule `CCN1C(=O)N(CC(=O)NC(CC(=O)O)c2ccccc2)C(=O)C1(C)c1ccc(C(=N)N)cc1` (stereo not drawn), in data set [1] (Homo sapiens), the IC50 was 500 nM.

In turn, `CC1(c2ccc(C(=N)N)cc2)NC(=O)N(CC(=O)NCC(NC(=O)OCc2ccccc2)C(=O)O)C1=O` (stereo not drawn) displayed an IC50 in data set [1] (Homo sapiens) of 300 nM. Still for that read-out and setting: for `N=C(N)c1ccc(C2(C3CC3)NC(=O)N(CC(=O)N[C@@H](CC(=O)O)C(=O)N[C@H](C(=O)O)c3ccccc3)C2=O)cc1` (stereo partly drawn) the value was 20 nM.

In turn, `CC1(c2ccc(NC(=N)N)cc2)NC(=O)N(CC(=O)N[C@@H](CC(=O)O)C(=O)N[C@H](C(=O)O)c2ccccc2)C1=O` (stereo partly drawn) showed a half-inhibitory concentration (IC50) in data set [1] (Homo sapiens) of 150 nM. In the case of `N=C(N)Nc1ccc(C2NC(=O)N(CC(=O)N[C@@H](CC(=O)O)C(=O)N[C@H](C(=O)O)c3ccccc3)C2=O)cc1` (stereo partly drawn), in data set [3], affinity was put at a Ki of 30 nM. The molecule also came in with an IC50 in data set [1] (Homo sapiens) of 200 nM.

Molecule `CC1(c2ccc(CN)cc2)NC(=O)N(CC(=O)N[C@@H](CC(=O)O)C(=O)N[C@H](C(=O)O)c2ccccc2)C1=O` (stereo partly drawn) registered an IC50 in data set [1] (Homo sapiens) of 150 nM.

Molecule `N=C(N)Nc1cccc(C2NC(=O)N(CC(=O)N[C@@H](CC(=O)O)C(=O)N[C@H](C(=O)O)c3ccccc3)C2=O)c1` (stereo partly drawn) showed a 50% inhibitory concentration (IC50) in data set [1] (Homo sapiens) of 6000 nM. Same read-out and setting: for `N=C(N)NCCC[C@@H]1NC(=O)N(CC(=O)N[C@@H](CC(=O)O)C(=O)N[C@@H](Cc2ccccc2)C(=O)O)C1=O` the value was 10000 nM. Same read-out and setting: for `CCC1(c2ccc(C(=N)N)cc2)NC(=O)N(CC(=O)N[C@@H](CC(=O)O)C(=O)N[C@H](C(=O)O)c2ccccc2)C1=O` (stereo partly drawn) the value was 25 nM. The same measure, in the same setting: for `N=C(N)c1ccc(C2(Cc3ccccc3)NC(=O)N(CC(=O)N[C@@H](CC(=O)O)C(=O)N[C@H](C(=O)O)c3ccccc3)C2=O)cc1` (stereo partly drawn) the value was 50 nM. For `CC1(c2ccc(C(=N)N)cc2)NC(=O)N(CC(=O)N[C@@H](CC(=O)O)C(=O)N[C@H](C(=O)O)c2ccccc2)C1=O` (stereo in doubt; 16), the midpoint of inhibition in data set [1], the IC50, lay at 40 nM. On the same count and under the same terms, for `CC1(c2ccc(C(=N)N)cc2)NC(=O)N(CC(=O)N[C@@H](CC(=O)O)C(=O)N[C@H](C(=O)O)c2ccccc2)C1=O` (stereo in doubt; 17) the value was 800 nM. For orientation: half-life means the time needed for the level to fall by half in the phase considered. Higher therefore signals slow decline. `CCOC(=O)C[C@H](NC(=O)CN1C(=O)N[C@@](C)(c2ccc(C(=N)N)cc2)C1=O)c1ccccc1.O=C(O)/C=C\C(=O)O` [CARAFIBAN MALEATE] showed a half-life in data set [4] of 9.9 h.

Source of the values: ChEMBL document CHEMBL1134795 (J Med Chem, 2001).
